The subject of series [1] is S. aureus ATCC 25923, S. typhimurium SL 1344, and P. aeruginosa GIM 1.551. As to the kind of experiment: Biofilm eradication assay (crystal violet and colony count). The format is cell-based. The following applies: 128 μg/mL, n = 5. As for the experimental part: The biofilm-eradicating ability of Myr-36PW was determined against S. aureus ATCC 25923, S. typhimurium SL 1344, and P. aeruginosa GIM 1.551 (Chen et al., [2018]; de Breij et al., [2018]). In brief, 200 μL of bacterial dilution (1 × 10^6 CFU/mL) was added into a 96-well plate and incubated for 24 h at 37°C to form a biofilm, which was washed three times with PBS. Subsequently, 200 μL of peptides at 128 μg/mL were added to the wells. After incubation for 1 h at 37°C, the OD of each well was measured at 620 nm by crystal violet staining. The wells were gently washed three times with PBS after 1 h incubation to evaluate the killing effect of Myr-36PW against bacteria in the biofilm. Afterward, 100 μL of suspension was serially diluted and spread on LB agar plates, and bacterial colony was measured.
(§1) Figure 6 Biofilm inhibition and eradication of Myr-36PW. (A–C) Inhibition of biofilm formation by Myr-36PW. (D) Eradication of preformed biofilm by Myr-36PW. (E) Killing effect of Myr-36PW against biofilm bacteria. Inhibition rate % = [1 – OD620 nm(peptides)/OD620 nm(bacteria)] × 100%. Biofilm mass % = OD620 nm(peptides)/OD620 nm(control) × 100%. The control group was bacterial culture without peptides. Data represent the mean ± SD (n = 5).

Another series concerns P. aeruginosa GIM 1.551. Put plainly: Inhibition zone assay (disk diffusion). It is filed as cell-based, Pseudomonas aeruginosa. Set-up: key: +, means the peptide has antibacterial activity. The following applies: disk 10 μg peptide, 18 h at 37°C, * P < 0.05, ** P < 0.01 vs PMAP-36PW. Here is the method:
(§2) The inhibition zone assay was performed through the disk diffusion to evaluate the antimicrobial activity of Myr-36PW in vitro (Dunne et al., [2017]). The four above-mentioned bacterial strains were used as experimental strains, with L. monocytogenes CICC 21634 cultured in BHI medium, and P. aeruginosa GIM 1.551 cultured in TSB medium. The bacterial cells were cultured for 12 h at 37°C in the appropriate medium, and the bacterial cell suspension was spread on LB agar. The disks containing 10 μg of peptides (1 μg/μL) were attached to the solid medium and incubated at 37°C for 18 h. Finally the diameter of the inhibition zone was measured.

Series [2] has as its system S. aureus ATCC 25923 and P. aeruginosa GIM 1.551. Put plainly: Thermal stability testing (boiling, then inhibition zone assay). The following applies: boiled 120 min, 10 μg peptide, n = 5. It is filed as cell-based, Staphylococcus aureus; Pseudomonas aeruginosa. Here is the method:
For thermal stability analysis, the Myr-36PW and peptides were boiled for 10, 20, 30, 40, 50, 60, 90, and 120 min as reported (Ebbensgaard et al., [2015]) with unboiled peptides as controls. Inhibition zone assay was performed against S. aureus ATCC 25923 and P. aeruginosa GIM 1.551. The inhibition zone diameters of peptides (10 μg, 1 μg/μL) were measured after incubation for 18 h at 37°C, and the inhibition curve was drawn.
Figure 3 Thermal stability determination of Myr-36PW by boiling. Thermal stability test of Myr-36PW and its analogs by boiling in different times (0, 10, 20, 30, 40, 50, 60, 90, and 120 min) via disk diffusion method. (A) (S. aureus ATCC 25923) and (B) (P. aeruginosa GIM 1.551) show the thermal stability curves of PMAP-36, PMAP-36PW, and Myr-36PW. The diameter of the standard disk is 6 mm. Data represent the mean ± SD (n = 5).

Another series relates to S. typhimurium SL 1344. As to the kind of experiment: Inhibition zone assay (disk diffusion). It is filed as cell-based, Salmonella typhimurium. The arrangement: key: +, means the peptide has antibacterial activity. To be noted: disk 10 μg peptide, 18 h at 37°C, * P < 0.05, ** P < 0.01 vs PMAP-36PW. Here is the method:
as §2

The test system of series [3] is S. aureus ATCC 25923, S. typhimurium SL 1344, and P. aeruginosa GIM 1.551. As to the kind of experiment: Biofilm inhibition assay (crystal violet). To be noted: 0.25–128 μg/mL, 24 h at 37°C, crystal violet OD 620 nm; n = 5. The format is cell-based. Here is the method:
The biofilm-inhibiting ability of Myr-36PW was evaluated against S. aureus ATCC 25923, S. typhimurium SL 1344, and P. aeruginosa GIM 1.551 by using crystal violet dye (Chen et al., [2018]; de Breij et al., [2018]). Overnight cultured strains in TSB medium were diluted to 1 × 10^6 CFU/mL, 100 μL of bacterial suspension with 100 μL of different concentration of peptides (0.25–128 μg/mL) was added into a 96-well plate. Bacterial suspension without peptides was used the negative control. After incubation for 24 h at 37°C, the supernatant weas discarded, and the biofilm was gently washed with PBS, fixed in methanol for 20 min, stained with 0.1% (w/v) crystal violet for 10 min, and finally removed. After washing with PBS, 95% ethanol was added into wells, and the optical density (OD) was measured at 620 nm.
as §1

The test system of the next series is S. aureus ATCC 25923. It is filed as cell-based, Staphylococcus aureus. The following applies: ATCC 25923, 1 h. As for the experimental part: The effects of abiotic factors on the antibacterial activity of Myr-36PW were investigated by MIC assay (Xi et al., [2013]; Zhong et al., [2019]). S. aureus ATCC 25923 and P. aeruginosa GIM 1.551 overnight cultures were diluted to 1 × 10^6 CFU/mL, and the MICs of peptides in MHB with different concentration of physiological salts (150 mM NaCL, 2 mM CaCL2) were determined. And after the peptides incubated in 10% mice serum for 1 h at 37°C, MICs of peptides against S. aureus ATCC 25923 and P. aeruginosa GIM 1.551 were determined. The MICs in MHB in the absence of physiological salts and serum were used as the control group.
Salt and serum stability in vitro were indicated by MIC assay. The concentrations of NaCl and CaCl2 were physiological concentration. 10% mice serum was inactivated by heat treatment for 15 min at 60 ℃。The control group was measured in the absence of physiological salts or serum in MHB.

Series [4] can be described thus: Self-assembly of the peptide. It is filed as physicochemical. To be noted: stated in discussion, method not given.

The values that follow come from PMC7481357, “N-terminal Myristoylation Enhanced the Antimicrobial Activity of Antimicrobial Peptide PMAP-36PW” (Frontiers in Cellular and Infection Microbiology, 2020).

Residues, ends and D or L forms follow the SMILES beside them. *: point of attachment. Myristoyl = CCCCCCCCCCCCCC(=O)*

On to `CCCCCCCCCCCCCC(=O)NCC(=O)NCC(=O)N[C@@H](CCCNC(=N)N)C(=O)N[C@@H](Cc1ccccc1)C(=O)N[C@@H](CCCNC(=N)N)C(=O)N[C@@H](CCCNC(=N)N)C(=O)N[C@@H](CC(C)C)C(=O)N[C@@H](CCCNC(=N)N)C(=O)N[C@@H](CCCCN)C(=O)N[C@@H](CCCCN)C(=O)N[C@H](C(=O)N[C@@H](CCCNC(=N)N)C(=O)N[C@@H](CCCCN)C(=O)N[C@@H](CCCNC(=N)N)C(=O)N[C@@H](CC(C)C)C(=O)N[C@@H](CCCCN)C(=O)N[C@@H](CCCCN)C(=O)N[C@H](C(=O)NCC(=O)N[C@@H](CCCCN)C(=O)N[C@H](C(=O)N[C@@H](CC(C)C)C(=O)N[C@@H](CCCCN)C(=O)N[C@@H](Cc1c[nH]c2ccccc12)C(=O)N[C@H](C(=O)N[C@@H](Cc1c[nH]c2ccccc12)C(=O)N[C@@H](Cc1c[nH]c2ccccc12)C(=O)N[C@H](C(=O)N[C@H](C(=O)NCC(=O)N[C@@H](CO)C(=O)N[C@H](C(=O)N1CCC[C@H]1C(=O)N[C@@H](CC(C)C)C(=O)NCC(=O)N[C@@H](CS)C(=O)NCC(=O)O)[C@@H](C)CC)C(C)C)[C@@H](C)CC)[C@@H](C)CC)C(C)C)[C@@H](C)CC)[C@@H](C)O` [Myr-36PW] (Myristoyl-GGRFRRLRKKTRKRLKKIGKVLKWIWWIVGSIPLGCG-OH; C-terminus assumed), for which, in series [1] (1 h at 37°C on 24 h biofilm, crystal violet OD 620 nm), the “Eradication of preformed biofilm” value is on record as “only eradicated the preformed biofilm in Gram-negative bacteria”. Besides, the “Killing effect against biofilm bacteria” value in series [1] (1 h at 37°C, colony count) is “bacterial killing effect except against S. aureus ATCC 25923”. Also, in the series with P. aeruginosa GIM 1.551, the “In vitro antibacterial activity (disk diffusion)” value is on record as “+**”. For the same compound, the “Antimicrobial activity after boiling (thermal stability)” value in series [2] is “retaining high bacterial inhibition”. In addition, the “In vitro antibacterial activity (disk diffusion)” value with S. typhimurium SL 1344 is given as “+*”. Further, the “Inhibition of biofilm formation” value in series [3] was “biofilm inhibition against the tested bacteria in a concentration-dependent manner”. Also, in the series with S. aureus ATCC 25923, the “MICs, Control” value was 0.0156 µg/mL and the “MICs, Serum” value was determined as 0.0313 µg/mL. Further, the Self-assembly entry in series [4] was “not self-assembly”.
